Results taken from patent US20180194762A1 (Pharmacyclics LLC, priority 2017, published 2018).
Where two headings read alike, the source gives them in different places.

Legend:
Format in all cases: biochemical
[1] = biological target: T1, panel of kinases (Homo sapiens, UniProt P51813); experiment: Inhibition of a panel of kinases (in vitro HotSpot kinase assay, 33P-ATP, 1 μM ATP), other kinases; details: BMX wild-type, read-out: BMX-WT IC50
T1 sequence (P51813 1-675): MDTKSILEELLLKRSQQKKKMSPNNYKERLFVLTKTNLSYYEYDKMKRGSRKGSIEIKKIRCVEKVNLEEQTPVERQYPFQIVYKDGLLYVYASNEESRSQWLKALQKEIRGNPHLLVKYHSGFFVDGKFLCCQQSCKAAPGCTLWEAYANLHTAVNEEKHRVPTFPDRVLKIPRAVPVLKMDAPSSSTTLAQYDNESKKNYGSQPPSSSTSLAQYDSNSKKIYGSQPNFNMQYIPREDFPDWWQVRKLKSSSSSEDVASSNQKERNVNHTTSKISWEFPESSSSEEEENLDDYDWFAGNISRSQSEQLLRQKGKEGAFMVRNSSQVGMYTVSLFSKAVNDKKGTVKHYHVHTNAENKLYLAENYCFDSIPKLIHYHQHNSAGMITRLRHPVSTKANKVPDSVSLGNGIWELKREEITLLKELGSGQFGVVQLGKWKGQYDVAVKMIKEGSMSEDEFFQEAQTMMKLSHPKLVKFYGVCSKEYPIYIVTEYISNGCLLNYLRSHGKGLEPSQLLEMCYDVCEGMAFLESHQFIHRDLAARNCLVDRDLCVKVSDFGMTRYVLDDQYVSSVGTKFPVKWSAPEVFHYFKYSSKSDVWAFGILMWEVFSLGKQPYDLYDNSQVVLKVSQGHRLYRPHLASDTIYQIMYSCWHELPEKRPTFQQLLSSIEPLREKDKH
In short: (§1)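 Radiometric read-out: 33P transfer to a suitable substrate by each purified enzyme, ATP at 1 μM. Values are degree of inhibition.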

[2] = biological target: T2, Btk (Homo sapiens, UniProt Q06187); experiment: Btk in vitro inhibitory activity (one of Method A TR-FRET, Method B electrophoretic mobility shift, Method C radiometric filter binding)
T2 construct: purified from insect cells as a full-length construct containing a N-terminal 6X-His tag; His6 (N); made in house; host or cells: insect cells (Method C)
In short: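 Three alternative formats were used. A radiometric filter-binding read used 8 nM full-length His-BTK with 0.2 mg/mL poly(Glu-Tyr) 4:1 (C); microfluidic separation of 1 μM FAM-peptide by 1 nM BTK gave IC50 from 12-point curves (B); TR-FRET at Km ATP, 0.5 nM Btk, gave Ki(app)-derived IC50 (A).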

[3] = biological target: T3, TEC (Homo sapiens, UniProt P42680); experiment: Inhibition of a panel of kinases (in vitro HotSpot kinase assay, 33P-ATP, 1 μM ATP); details: for IC50: HotSpot kinase assay, 1 μM ATP; for TEC/Btk: ratio of TEC IC50 to Btk IC50 (selectivity)
T3 sequence (P42680 1-631): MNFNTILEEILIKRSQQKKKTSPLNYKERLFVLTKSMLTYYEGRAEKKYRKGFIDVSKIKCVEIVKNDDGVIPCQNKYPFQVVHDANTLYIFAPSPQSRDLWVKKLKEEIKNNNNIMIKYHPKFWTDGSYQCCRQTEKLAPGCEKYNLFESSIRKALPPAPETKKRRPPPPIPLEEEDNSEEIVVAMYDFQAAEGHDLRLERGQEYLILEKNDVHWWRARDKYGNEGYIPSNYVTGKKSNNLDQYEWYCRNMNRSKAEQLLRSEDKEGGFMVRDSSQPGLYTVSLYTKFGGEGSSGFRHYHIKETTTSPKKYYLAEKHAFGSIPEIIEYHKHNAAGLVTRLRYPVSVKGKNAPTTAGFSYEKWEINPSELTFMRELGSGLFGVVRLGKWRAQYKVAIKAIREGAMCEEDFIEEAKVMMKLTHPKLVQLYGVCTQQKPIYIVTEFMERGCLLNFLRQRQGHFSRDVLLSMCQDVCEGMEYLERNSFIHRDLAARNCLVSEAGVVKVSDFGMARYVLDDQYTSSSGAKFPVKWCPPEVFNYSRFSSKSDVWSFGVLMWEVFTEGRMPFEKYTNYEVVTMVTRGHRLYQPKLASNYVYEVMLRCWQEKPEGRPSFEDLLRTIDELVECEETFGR
In short: as §1

[4] = wild-type Btk, read-out: Btk-WT IC50
[5] = method is one of A, B or C, not stated which, read-out: IC50 values against Btk

T2 sequence (Q06187 whole entry): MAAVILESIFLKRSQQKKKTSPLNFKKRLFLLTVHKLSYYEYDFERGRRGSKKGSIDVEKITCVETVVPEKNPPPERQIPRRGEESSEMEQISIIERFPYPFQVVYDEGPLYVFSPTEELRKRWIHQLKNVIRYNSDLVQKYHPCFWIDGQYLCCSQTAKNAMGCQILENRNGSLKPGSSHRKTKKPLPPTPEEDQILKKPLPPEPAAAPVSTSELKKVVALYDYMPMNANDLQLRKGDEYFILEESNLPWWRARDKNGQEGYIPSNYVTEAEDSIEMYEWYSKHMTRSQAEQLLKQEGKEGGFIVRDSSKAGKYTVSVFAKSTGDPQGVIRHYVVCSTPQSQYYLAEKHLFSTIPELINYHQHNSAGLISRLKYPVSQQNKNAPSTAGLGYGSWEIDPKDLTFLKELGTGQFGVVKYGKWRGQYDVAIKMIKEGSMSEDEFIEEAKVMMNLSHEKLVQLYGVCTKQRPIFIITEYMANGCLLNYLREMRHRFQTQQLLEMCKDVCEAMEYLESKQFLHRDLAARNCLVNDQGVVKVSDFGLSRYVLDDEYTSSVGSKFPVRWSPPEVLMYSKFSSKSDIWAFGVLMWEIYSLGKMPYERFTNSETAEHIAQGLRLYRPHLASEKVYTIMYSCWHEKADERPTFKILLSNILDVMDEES

| SMILES | IC50 [1] | IC50 [2, 4] | IC50 [3] | TEC/Btk [3] | IC50 [2, 5] |
| --- | --- | --- | --- | --- | --- |
| CC(C)(C)c1nc(C(=O)NCc2ccc(-c3ccnc4[nH]nc(N[C@@H]5CCCN(C=O)C5)c34)cc2F)no1 [Example 90, 5-tert-butyl-N-{[2-fluoro-4-(3-{[(3R)-1-formylpiperidin-3-yl]amino}-1H-pyrazolo[3,4-b]pyridin-4-yl)phenyl]methyl}-1,2,4-oxadiazole-3-carboxamide] | 2620 nM | 9.44 nM | 2250 nM | 238 | < 10 nM |
| CC1(C(=O)N2CC[C@H](Nc3n[nH]c4nccc(-c5ccc(CNC(=O)c6noc(C(C)(C)C)n6)c(F)c5)c34)C2)COC1 [Example 94, 5-tert-butyl-N-{[2-fluoro-4-(3-{[(3S)-1-(3-methyloxetane-3-carbonyl)pyrrolidin-3-yl]amino}-1H-pyrazolo[3,4-b]pyridin-4-yl)phenyl]methyl}-1,2,4-oxadiazole-3-carboxamide] | > 10000 nM | 25.3 nM | > 10000 nM | >100 |  |
| C=CC(=O)N1CC[C@@H](Nc2n[nH]c3nccc(-c4ccc([C@H](C)NC(=O)c5noc(C(C)(C)C)n5)cc4)c23)C1 [Example 95, 5-tert-butyl-N-[(1S)-1-[4-(3-{[(3R)-1-(prop-2-enoyl)pyrrolidin-3-yl]amino}-1H-pyrazolo[3,4-b]pyridin-4-yl)phenyl]ethyl]-1,2,4-oxadiazole-3-carboxamide] | 774 nM | 67.9 nM | 924 nM | 14 |  |
| C=CC(=O)N1CC[C@@H](Nc2n[nH]c3nccc(-c4ccc([C@H](C)NC(=O)c5ccc(C(C)(C)C)cc5)cc4)c23)C1 [Example 97, 4-tert-butyl-N-[(1S)-1-[4-(3-{[(3R)-1-(prop-2-enoyl)pyrrolidin-3-yl]amino}-1H-pyrazolo[3,4-b]pyridin-4-yl)phenyl]ethyl]benzamide] | 709 nM | 309 nM | 1570 nM | 5 |  |
| C=CC(=O)N1CC[C@@H](Nc2n[nH]c3nccc(-c4ccc([C@@H](C)NC(=O)c5noc(C(C)(C)C)n5)cc4)c23)C1 [Example 98, 5-tert-butyl-N-[(1R)-1-[4-(3-{[(3R)-1-(prop-2-enoyl)pyrrolidin-3-yl]amino}-1H-pyrazolo[3,4-b]pyridin-4-yl)phenyl]ethyl]-1,2,4-oxadiazole-3-carboxamide] | 239 nM | 0.165 nM | 108 nM | 652 | < 10 nM |
| C=CC(=O)N[C@@H]1CCN(c2n[nH]c3nccc(-c4ccc(CNC(=O)c5noc(C(C)(C)C)n5)c(F)c4)c23)C1 [Example 102, 5-tert-butyl-N-[(2-fluoro-4-{3-[(3R)-3-(prop-2-enamido)pyrrolidin-1-yl]-1H-pyrazolo[3,4-b]pyridin-4-yl}phenyl)methyl]-1,2,4-oxadiazole-3-carboxamide] | 33 nM | 0.0652 nM | 20 nM | 305 | < 10 nM |
| C=CC(=O)N1CC(Nc2n[nH]c3nccc(-c4ccc(CNC(=O)c5noc(C(C)(C)C)n5)c(F)c4)c23)C1 [Example 107, 5-tert-butyl-N-{[2-fluoro-4-(3-{[1-(prop-2-enoyl)azetidin-3-yl]amino}-1H-pyrazolo[3,4-b]pyridin-4-yl)phenyl]methyl}-1,2,4-oxadiazole-3-carboxamide] | > 10000 nM | 528 nM | > 10000 nM | >100 |  |

Second part, the compound after the results:

| IC50 [1] | IC50 [2, 4] | IC50 [3] | TEC/Btk [3] | IC50 [2, 5] | SMILES |
| --- | --- | --- | --- | --- | --- |
| 510 nM | > 10000 nM | 3280 nM | >100 |  | C=CC(=O)N1CC[C@@H](Nc2n[nH]c3nccc(-c4cc(F)cc(CNC(=O)c5ccc(C(C)(C)C)cc5)c4)c23)C1 [Example 89, 4-tert-butyl-N-{[3-fluoro-5-(3-{[(3R)-1-(prop-2-enoyl)pyrrolidin-3-yl]amino}-1H-pyrazolo[3,4-b]pyridin-4-yl)phenyl]methyl}benzamide] |
| 7600 nM | 13.7 nM | 6920 nM | 505 |  | CC(=O)N1CC[C@H](Nc2n[nH]c3nccc(-c4ccc(CNC(=O)c5noc(C(C)(C)C)n5)c(F)c4)c23)C1 [Example 92, N-{[4-(3-{[(3S)-1-acetylpyrrolidin-3-yl]amino}-1H-pyrazolo[3,4-b]pyridin-4-yl)-2-fluorophenyl]methyl}-5-tert-butyl-1,2,4-oxadiazole-3-carboxamide] |
| 3340 nM | 11.7 nM | 3770 nM | 322 |  | CC(C)(C)c1nc(C(=O)NCc2ccc(-c3ccnc4[nH]nc(N[C@H]5CCN(C=O)C5)c34)cc2F)no1 [Example 93, 5-tert-butyl-N-{[2-fluoro-4-(3-{[(3S)-1-formylpyrrolidin-3-yl]amino}-1H-pyrazolo[3,4-b]pyridin-4-yl)phenyl]methyl}-1,2,4-oxadiazole-3-carboxamide] |
| 1890 nM | 13.8 nM | 2970 nM | 215 |  | CC(C)(C)c1ccc(C(=O)NCc2ccc(-c3ccnc4[nH]nc(N5CC[C@@H](N)C5)c34)cc2F)cc1 [Example 100, N-[(4-{3-[(3R)-3-aminopyrrolidin-1-yl]-1H-pyrazolo[3,4-b]pyridin-4-yl}-2-fluorophenyl)methyl]-4-tert-butylbenzamide] |
| 122 nM | 0.22 nM | 96 nM | 434 | < 10 nM | C=CC(=O)N[C@@H]1CCN(c2n[nH]c3nccc(-c4ccc(CNC(=O)c5ccc(C(C)(C)C)cc5)c(F)c4)c23)C1 [Example 101, 4-tert-butyl-N-[(2-fluoro-4-{3-[(3R)-3-(prop-2-enamido)pyrrolidin-1-yl]-1H-pyrazolo[3,4-b]pyridin-4-yl}phenyl)methyl]benzamide] |
| 4440 nM | 172 nM | > 10000 nM | >100 |  | CC(C)(C)c1ccc(C(=O)NCc2ccc(-c3ccnc4[nH]nc(NC5CCNCC5)c34)cc2F)cc1 [Example 103, 4-tert-butyl-N-[(2-fluoro-4-{3-[(piperidin-4-yl)amino]-1H-pyrazolo[3,4-b]pyridin-4-yl}phenyl)methyl]benzamide] |
| 897 nM | 1.87 nM | 1560 nM | 834 | < 10 nM | C=CC(=O)N1CCC(Nc2n[nH]c3nccc(-c4ccc(CNC(=O)c5ccc(C(C)(C)C)cc5)c(F)c4)c23)CC1 [Example 104, 4-tert-butyl-N-{[2-fluoro-4-(3-{[1-(prop-2-enoyl)piperidin-4-yl]amino}-1H-pyrazolo[3,4-b]pyridin-4-yl)phenyl]methyl}benzamide] |
| 312 nM | 0.457 nM | 470 nM | 1028 | < 10 nM | C=CC(=O)N1CCC(Nc2n[nH]c3nccc(-c4ccc(CNC(=O)c5noc(C(C)(C)C)n5)c(F)c4)c23)CC1 [Example 105, 5-tert-butyl-N-{[2-fluoro-4-(3-{[1-(prop-2-enoyl)piperidin-4-yl]amino}-1H-pyrazolo[3,4-b]pyridin-4-yl)phenyl]methyl}-1,2,4-oxadiazole-3-carboxamide] |
| > 10000 nM | > 10000 nM | > 10000 nM |  |  | C=CC(=O)N1CC(Nc2n[nH]c3nccc(-c4ccc(CNC(=O)c5ccc(C(C)(C)C)cc5)c(F)c4)c23)C1 [Example 106, 4-tert-butyl-N-{[2-fluoro-4-(3-{[1-(prop-2-enoyl)azetidin-3-yl]amino}-1H-pyrazolo[3,4-b]pyridin-4-yl)phenyl]methyl}benzamide] |
